Experimental data reported in ChEMBL document CHEMBL1155639, “Synthesis of 16,18-dihydroxycleroda-3,13Z-dien-16,15-olide, (+)-16-hydroxycleroda-3,13Z-dien-16,15-olide, and (-)-hydroxyhalima-5(10),13-dien-16,15-olide from (+)-hardwickiic acid” (2000).

Tested on: Mycobacterium tuberculosis
Assay: Antitubercular activity against Mycobacterium tuberculosis at 12.5 ug/mL by TAACF method
Format: functional

SMILES: CC1=CCC[C@H]2[C@](C)(CCC3=CC(=O)OC3O)[C@@H](C)CC[C@]12C (stereo partly specified)
- inhibition at 12.5 µg/mL: 85%
